Experimental data reported in US20210371459A1, “DIMERIC PEPTIDE INHIBITORS OF APOPTOSIS PROTEINS” (Hepagene Therapeutics (HK) Limited, priority 2017, published 2021).

How the values were obtained:
Conditions in all cases: FP, probe AbuRPFK-5FAM, 60 min at 25° C.
[1] = biological target: T1, XIAP-BIR3 (Homo sapiens, UniProt P98170); experiment: XIAP-BIR3 fluorescence polarization binding assay
T1 construct: purchased Reaction Biology APT-11-374
From the text: (§1) IAPs are one main cause of cancer development and may result from overexpression of anti-apoptotic proteins. This protocol establishes three binding assays for XIAP Bir3 domain, cIAP1 and cIAP2 using FP (Fluorescence polarization) technology. The fluorescence probe used is a synthetic peptide conjugated to 5-carboxyfluorescein (AbuRPFK-5FAM). The fluorescence polarization value (mP) was detected by Envision, which was used to reflect the binding degree of protein and fluorescent marker. Reagents and equipment used in the assay are listed below, followed by the protocol.
(§2) • a) Prepare 100 times of the final cpd concentration in appropriate tube and transfer 5 uL compound (“cpd”) to 45 μL 1× reaction buffer with 10% DMSO. • b) The final reference cpd concentration is 10000, 3333.3, 1111.1, 370.4, 123.4, 41.2, 13.7, 4.57, 1.52, 0.51, 0.17 and 0 nM. So the 100 times of the concentration is 1000, 333.3, 111.1, 37.04, 12.34, 4.12, […], 0.15, 0.05, 0.017 and 0 μM. The final test cpds concentration is 3333.3, 1111.1, 370.4, 123.4, 41.2, 13.7, 4.57, 1.52, 0.51, 0.17, 0.057 and 0 nM. So the 100 times of the concentration is 333.3, 111.1, 37.04, 12.34, 4.12, […], 0.15, 0.05, 0.017, 0.0057 and 0 μM • c) Add 8 μL/well each dose enzyme to 384 well microplate (ProxiPlate-384 F Plus, 6008260) using multichannel pipette, prepared in step 2.1.1.2 • d) Centrifuge at 1000 rpm. • e) Add 2 μL/well cpd to 384 well microplate (ProxiPlate-384 F Plus, 6008260) using multichannel pipette, prepared in step a). • f) Centrifuge at 1000 rpm. RT, 15 min. • g) Start the assay by adding 10 uL/well substrate (prepared in step 2.1.1.3) to the same 384 well microplate using multichannel pipette • h) Centrifuge at 1000 rpm. • i) Cover the assay plate and incubate for 60 min at 25° C. • j) Read on Envision 2104 for mP and plot the IC50s with mP values. • k) Data analysis: IC50s were determined based on a non-linear regression analysis of data collected.

[2] = biological target: T2, cIAP2-BIR3 (Homo sapiens, UniProt Q13489); experiment: cIAP2-BIR3 fluorescence polarization binding assay
T2 construct: cIAP2-BIR3; Reaction Biology; APT-11-372; purchased Reaction Biology APT-11-372
From the text: as §1, §2

[3] = biological target: T3, cIAP1-BIR3 (Homo sapiens, UniProt Q13490); experiment: cIAP1-BIR3 fluorescence polarization binding assay
T3 construct: cIAP1-BIR3; Reaction Biology; APT-11-370; purchased Reaction Biology APT-11-370
From the text: as §1, §2

T3 sequence (Q13490 253-363 limits assumed): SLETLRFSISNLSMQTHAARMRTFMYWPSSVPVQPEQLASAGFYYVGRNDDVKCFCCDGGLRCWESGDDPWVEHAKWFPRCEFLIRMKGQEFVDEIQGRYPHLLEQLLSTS
T2 sequence (Q13489 238-349 limits assumed): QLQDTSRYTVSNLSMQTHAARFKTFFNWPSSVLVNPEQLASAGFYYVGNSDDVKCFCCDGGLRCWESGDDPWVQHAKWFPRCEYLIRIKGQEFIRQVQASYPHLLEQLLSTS
T1 sequence (P98170 241-356 limits assumed): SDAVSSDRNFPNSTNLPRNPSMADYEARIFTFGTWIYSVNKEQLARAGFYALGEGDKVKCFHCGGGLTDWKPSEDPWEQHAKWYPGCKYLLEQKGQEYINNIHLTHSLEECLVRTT

Row | Structure (SMILES) | IC50 [1] [nM] | IC50 [2] [nM] | IC50 [3] [nM]
1 | CN[C@@H](C)C(=O)N[C@H](C(=O)N1C[C@@H](OCCC(=O)N2CCN(C(=O)CCO[C@H]3C[C@@H](C(=O)N[C@@H]4CCCc5ccccc54)N(C(=O)[C@@H](NC(=O)[C@H](C)NC)C4CCC4)C3)CC2)C[C@H]1C(=O)N[C@@H]1CCCc2ccccc21)C1CCC1 [Compound IV-G, (2S,4S)-1-[(2S)-2-Cyclobutyl-2-[(2S)-2-(methylamino)propanamido]acetyl]-4-[3-[4-(3-[[(3S,5S)-1-[(2S)-2-cyclobutyl-2-[(2S)-2-(methylamino)propanamido]acetyl]-5-[[(1R)-1,2,3,4-tetrahydronaphthalen-1-yl]carbamoyl]pyrrolidin-3-yl]oxy]propanoyl)piperazin-1-yl]-3-oxopropoxy]-N-[(1R)-1,2,3,4-tetrahydronaphthalen-1-yl]pyrrolidine-2-carboxamide] | 10 to 100 | 10 to 100 | 0.1 to 10
2 | CN[C@@H](C)C(=O)N[C@H](C(=O)N1C[C@@H](OCCCN2CCN(CCCO[C@H]3C[C@@H](C(=O)N[C@@H]4CCCc5ccccc54)N(C(=O)[C@@H](NC(=O)[C@H](C)NC)C(C)C)C3)CC2)C[C@H]1C(=O)N[C@@H]1CCCc2ccccc21)C(C)C [Compound II-C, (2S,4S)-1-[(2S)-3-Methyl-2-[(2S)-2-(methylamino)propanamido]butanoyl]-4-{3-[4-(3-{[(3S,5S)-1-[(2S)-3-methyl-2-[(2S)-2-(methylamino)propanamido]butanoyl]-5-{[(1R)-1,2,3,4-tetrahydronaphthalen-1-yl]carbamoyl}pyrrolidin-3-yl]oxy}propyl)piperazin-1-yl]propoxy}-N-[(1R)-1,2,3,4-tetrahydronaphthalen-1-yl]pyrrolidine-2-carboxamide] | 0.1 to 10 | 0.1 to 10 | 0.1 to 10
3 | CN[C@@H](C)C(=O)N[C@H](C(=O)N1C[C@@H](OCCC(=O)N2CCN(C(=O)CCO[C@H]3C[C@@H](C(=O)N[C@@H]4CCCc5ccccc54)N(C(=O)[C@@H](NC(=O)[C@H](C)NC)C(C)C)C3)CC2)C[C@H]1C(=O)N[C@@H]1CCCc2ccccc21)C(C)C [Compound IV-D, (2S, 4S)-1-[(2S)-3-Methyl-2-[(2S)-2-(methylamino)propanamido]butanoyl]-4-[3-[4-(3-[[(3S,5S)-1-[(2S)-3-methyl-2-[(2S)-2-(methylamino)propanamido]butanoyl]-5-[[(1R)-1,2,3,4-tetrahydronaphthalen-1-yl]carbamoyl]pyrrolidin-3-yl]oxy]propanoyl)piperazin-1-yl]-3-oxopropoxy]-N-[(1R)-1,2,3,4-tetrahydronaphthalen-1-yl]pyrrolidine-2-carboxamide] | 10 to 100 | 10 to 100 | 0.1 to 10
4 | CC[C@H](NC(=O)[C@H](C)NC)C(=O)N1CCC[C@H]1C(=O)N[C@@H]1CCCc2c1cccc2N1CCN(c2cccc3c2CCC[C@H]3NC(=O)[C@@H]2CCCN2C(=O)[C@H](CC)NC(=O)[C@H](C)NC)CC1 [Compound I-B, (2S)-1-[(2S)-2-[(2S)-2-(Methylamino)propanamido]butanoyl]-N-[(1R)-5-[4-[(5R)-5-[(2S)-1-[(2S)-2-[(2S)-2-(methylamino)propanamido]butanoyl]pyrrolidine-2-amido]-5,6,7,8-tetrahydronaphthalen-1-yl]piperazin-1-yl]-1,2,3,4-tetrahydronaphthalen-1-yl]pyrrolidine-2-carboxamide] | 100 to 1000 | 10 to 100 | 0.1 to 10
5 | CC[C@H](C)[C@H](NC(=O)[C@H](C)NC)C(=O)N1C[C@@H](OCCCN2CCN(CCCO[C@H]3C[C@@H](C(=O)N[C@@H]4CCCc5ccccc54)N(C(=O)[C@@H](NC(=O)[C@H](C)NC)[C@@H](C)CC)C3)CC2)C[C@H]1C(=O)N[C@@H]1CCCc2ccccc21 [Compound II-G, (2S,4S)-1-[(2S)-3-Methyl-2-[(2S)-2-(methylamino)propanamido]pentanoyl]-4-{3-[4-(3-{[(3S,5S)-1-[(2S)-3-methyl-2-[(2S)-2-(methylamino)propanamido]pentanoyl]-5-{[(1R)-1,2,3,4-tetrahydronaphthalen-1-yl]carbamoyl}pyrrolidin-3-yl]oxy}propyl)piperazin-1-yl]propoxy}-N-[(1R)-1,2,3,4-tetrahydronaphthalen-1-yl]pyrrolidine-2-carboxamide] | 0.1 to 10 | 0.1 to 10 | 0.1 to 10
6 | CN[C@@H](C)C(=O)N[C@@H](C)C(=O)N1C[C@@H](OCCC(=O)N2CCN(C(=O)CCO[C@H]3C[C@@H](C(=O)N[C@@H]4CCCc5ccccc54)N(C(=O)[C@H](C)NC(=O)[C@H](C)NC)C3)CC2)C[C@H]1C(=O)N[C@@H]1CCCc2ccccc21 [Compound IV-A, (2S,4S)-1-[(2S)-2-[(2S)-2-(Methylamino)propanamido]propanoyl]-4-[3-[4-(3-[[(3S,5S)-1-[(2S)-2-[(2S)-2-(methylamino)propanamido]propanoyl]-5-[[(1R)-1,2,3,4-tetrahydronaphthalen-1-yl]carbamoyl]pyrrolidin-3-yl]oxy]propanoyl)piperazin-1-yl]-3-oxopropoxy]-N-[(1R)-1,2,3,4-tetrahydronaphthalen-1-yl]pyrrolidine-2-carboxamide] | 100 to 1000 | 10 to 100 | 0.1 to 10
7 | CN[C@@H](C)C(=O)N[C@H](C(=O)N1C[C@@H](OCCC(=O)N2CCN(C(=O)CCO[C@H]3C[C@@H](C(=O)N[C@@H]4CCCc5ccccc54)N(C(=O)[C@@H](NC(=O)[C@H](C)NC)C4CC4)C3)CC2)C[C@H]1C(=O)N[C@@H]1CCCc2ccccc21)C1CC1 [Compound IV-C, (2S,4S)-1-[(2S)-2-Cyclopropyl-2-[(2S)-2-(methylamino)propanamido]acetyl]-4-{3-[4-(3-{[(3S,5S)-1-[(2S)-2-cyclopropyl-2-[(2S)-2-(methylamino)propanamido]acetyl]-5-{[(1R)-1,2,3,4-tetrahydronaphthalen-1-yl]carbamoyl}pyrrolidin-3-yl]oxy}propanoyl)piperazin-1-yl]-3-oxopropoxy}-N-[(1R)-1,2,3,4-tetrahydronaphthalen-1-yl]pyrrolidine-2-carboxamide] | 100 to 1000 | 0.1 to 10 | 0.1 to 10
8 | CN[C@@H](C)C(=O)N[C@H](C(=O)N1CCC[C@H]1C(=O)N[C@@H]1CCCc2c1cccc2N1CCN(c2cccc3c2CCC[C@H]3NC(=O)[C@@H]2CCCN2C(=O)[C@@H](NC(=O)[C@H](C)NC)C(C)C)CC1)C(C)C [Compound I-C, (S)-1-((S)-3-Methyl-2-((S)-2-(methylamino)propanamido)butanoyl)-N—((R)-5-(4-((R)-5-((S)-1-((S)-3-methyl-2-((S)-2-(methylamino)propanamido)butanoyl)pyrrolidine-2-carboxamido)-5,6,7,8-tetrahydronaphthalen-1-yl)piperazin-1-yl)-1,2,3,4-tetrahydronaphthalen-1-yl)pyrrolidine-2-carboxamide] | 10 to 100 | 10 to 100 | 0.1 to 10
9 | CN[C@@H](C)C(=O)N[C@H](C(=O)N1C[C@@H](OCCCN2CCN(CCCO[C@H]3C[C@@H](C(=O)N[C@@H]4CCCc5ccccc54)N(C(=O)[C@@H](NC(=O)[C@H](C)NC)C4CCC4)C3)CC2)C[C@H]1C(=O)N[C@@H]1CCCc2ccccc21)C1CCC1 [Compound II-H, (2S,4S)-1-[(2S)-2-Cyclobutyl-2-[(2S)-2-(methylamino)propanamido]acetyl]-4-[3-[4-(3-[[(3S,5S)-1-[(2S)-2-cyclobutyl-2-[(2S)-2-(methylamino)propanamido]acetyl]-5-[[(1R)-1,2,3,4-tetrahydronaphthalen-1-yl]carbamoyl]pyrrolidin-3-yl]oxy]propyl)piperazin-1-yl]propoxy]-N-[(1R)-1,2,3,4-tetrahydronaphthalen-1-yl]pyrrolidine-2-carboxamide] | 10 to 100 | 10 to 100 | 0.1 to 10
